Reference: PMC10892375, “Determination of the Cannabinoid CB1 Receptor’s Positive Allosteric Modulator Binding Site through Mutagenesis Studies” (Pharmaceuticals, 2024)
“Also recorded” adds a separate entry of the source.

Columns and labels:
Assay type in all cases: cell-based
[1] = molecular target: T1, hCB1 mutant L209A^3.45 (Homo sapiens, UniProt P21554, L209A); test: pIRES G protein dissociation BRET assay, L209A mutant; conditions: 10 μM ligand alone
T1 construct: expressed in transfected cells; host or cells: HEK293
Method: (§1) Mutagenesis studies using the pIRES G protein dissociation assay were performed using human embryonic kidney 293 (HEK293) wild-type cells transiently transfected with pplss-3HA-hCB1 [31] or modified receptor. All cells were cultured in Dulbecco’s Modified Eagle’s Medium (DMEM) supplemented with 10% fetal bovine serum (FBS), grown in […] vented-cap flasks, and maintained in a 37° C incubator at 5% CO2.
(§2) Mutants of pplss-3HA-hCB1 (WT, pEF-V4-HisA (pEF4a) construct) were generated using a modified QuikChange® (Stratagene, San Diego, CA, USA) site-directed mutagenesis approach using KAPA HiFi Hotstart Polymerase (KAPA Biosystems, Roche, Basel, Switzerland). Briefly, single-stranded primers used to modify one or two base pairs within the target amino acid using PCR were purchased from Integrated DNA Technologies (IDT, Coralville, IA, USA). All pplss-hCB1 mutants were generated using the pplss-3HA-hCB1 pEF4a as parental DNA. PCR products were generated using recommended cycling conditions and treated with Dpn1 (New England Biolabs, Ipswich, MA, USA) overnight at 37° C to digest methylated parental DNA. PCR products were electrophoresed and run on an agarose gel (1% (w.v^−1) agarose, HydraGene, Piscataway, NJ, USA) containing 0.25 μg/mL ethidium bromide (Sigma-Aldrich, St. Louis, MO, USA). Gels were run in 40 mM TRIS-acetate buffer containing […] (pH 8.3) at 100 V for 30 min, maximum current and included a 1kb+ DNA ladder (Invitrogen, Thermo Fisher Scientific, Carlsbad, CA, USA) for reference. Gels were imaged using an UVTech Alliance Q9 Mini transilluminator (UVTech Alliance, Cambridge, UK). Digested products were then used to transform NEB 5α competent E. coli cells in accordance with manufacturer’s instructions. Briefly, transformed PCR products were grown overnight on 8.5 mL Luria Broth agar plates (containing 100 μg/mL ampicillin) at 37° C. Single bacterial colonies were picked and inoculated in Luria Broth (containing 100 μg/mL ampicillin) and grown overnight in a shaking incubator at 37° C. Plasmids were then harvested and purified using a Qiagen miniprep kit (Qiagen, Hilden, Germany) and validated using sequencing (Genetics Analysis Service, University of Otago, Dunedin, New Zealand).
(§3) Dissociation of the G protein heterotrimer, specifically Gαi1, Gβ1, and Gγ2, was investigated using a bioluminescence resonance energy transfer (BRET) assay with the pIRES biosensor first described by and adapted by.
(§4) Briefly, 3 × 10^6 WT HEK293 cells were seeded into 10 cm culture dishes (Corning, Corning, NY, USA; one dish for the control receptor and one for each modified receptor) and incubated at 37 °C for 24 h to gain 50–60% confluency. Culture medium was then replaced and transfection mixtures containing 3 μg pIRES vector and 1 μg receptor (either pplss-hCB1 or modified receptor) were prepared (4 μg total DNA). Plasmids were initially diluted in sterile Milli-Q water before being diluted in OptiMEM reduced serum medium (Thermo Fisher Scientific, Waltham, MA, USA) and combined with […] polyethylenimine (PEI)-max (1:9 DNA:PEI-max ratio) and incubated at room temperature for 20 min. Transfection mixtures were then added to cells via dropwise addition, and cells were incubated at 37 °C for 24 h. Transfected cells were lifted and plated at 50,000 cells/well into poly-d-lysine (PDL; Sigma-Aldrich) coated white 96-well CulturPlates (PerkinElmer, Waltham, MA, USA) and incubated for a further 24 h at 37 °C.
To assay, the culture medium was aspirated and cells were washed with phosphate buffered saline (PBS) and replaced with BRET assay medium (phenol red free DMEM containing 25 mM HEPES and supplemented with 1 mg/mL bovine serum albumin; BSA, MP Biomedicals, Auckland, New Zealand) for 30 min prior to drug addition (serum starve). Drugs were prepared at 10 × concentration in BRET assay medium, combined in a polypropylene V-bottom plate, and incubated at 37° C prior to drug stimulation. […]

[2] = molecular target: T2, hCB1 mutant I169A^2.56 (Homo sapiens, UniProt P21554, I169A); test: pIRES G protein dissociation BRET assay, I169A mutant; conditions: for Allosteric modulation of CP55940 (PAM activity): 10 μM allosteric ligand; for Allosteric modulation of CP55940 (PAM activity) / Allosteric agonism: G protein dissociation in the absence of an orthosteric ligand: result in words; for G protein dissociation, AUC of 10 μM compound (maximal response): 10 μM ligand alone; for Allosteric agonism: G protein dissociation in the absence of an orthosteric ligand: 10 μM
T2 construct: expressed in transfected cells; host or cells: HEK293
Method: as §1, §2, §3, §4
(§5) To assay, the culture medium was aspirated and cells were washed with phosphate buffered saline (PBS) and replaced with BRET assay medium (phenol red free DMEM containing 25 mM HEPES and supplemented with 1 mg/mL bovine serum albumin; BSA, MP Biomedicals, Auckland, New Zealand) for 30 min prior to drug addition (serum starve). Drugs were prepared at 10 × concentration in BRET assay medium, combined in a polypropylene V-bottom plate, and incubated at 37° C prior to drug stimulation.

[3] = molecular target: T3, hCB1 mutant K232A^4.41 (Homo sapiens, UniProt P21554, K232A); test: pIRES G protein dissociation BRET assay, K232A mutant; conditions: 10 μM ligand alone
T3 construct: expressed in transfected cells; host or cells: HEK293
Method: as §1, §2, §3, §4, §5

[4] = molecular target: T4, hCB1 mutant F289A^5.53 (Homo sapiens, UniProt P21554, F289A); test: pIRES G protein dissociation BRET assay, F289A mutant; conditions: 10 μM ligand alone
T4 construct: expressed in transfected cells; host or cells: HEK293
Method: as §1, §2, §3, §4, §5

[5] = molecular target: T5, hCB1 mutant Y172A^2.59 (Homo sapiens, UniProt P21554, Y172A); test: pIRES G protein dissociation BRET assay, Y172A mutant; conditions: for G protein dissociation, AUC of 10 μM compound (maximal response): 10 μM ligand alone
T5 construct: expressed in transfected cells; host or cells: HEK293
Method: as §1, §2, §3, §4, §5

[6] = molecular target: T6, hCB1 mutant L404A^8.50 (Homo sapiens, UniProt P21554, L404A); test: pIRES G protein dissociation BRET assay, L404A mutant; conditions: 10 μM ligand alone
T6 construct: expressed in transfected cells; host or cells: HEK293
Method: as §1, §2, §3, §4, §5

[7] = molecular target: T7, hCB1 mutant H154A^2.41 (Homo sapiens, UniProt P21554, H154A); test: pIRES G protein dissociation BRET assay, H154A mutant; conditions: 10 μM ligand alone
T7 construct: expressed in transfected cells; host or cells: HEK293
Method: as §1, §2, §3, §4, §5

[8] = molecular target: T8, hCB1 mutant S173A^2.60 (Homo sapiens, UniProt P21554, S173A); test: pIRES G protein dissociation BRET assay, S173A mutant; conditions: 10 μM ligand alone
T8 construct: expressed in transfected cells; host or cells: HEK293
Method: as §1, §2, §3, §4, §5

[9] = molecular target: T9, hCB1 mutant I245A^4.54 (Homo sapiens, UniProt P21554, I245A); test: pIRES G protein dissociation BRET assay, I245A mutant; conditions: 10 μM ligand alone
T9 construct: expressed in transfected cells; host or cells: HEK293
Method: as §1, §2, §3, §4, §5

T5 sequence (P21554 whole entry Y172A): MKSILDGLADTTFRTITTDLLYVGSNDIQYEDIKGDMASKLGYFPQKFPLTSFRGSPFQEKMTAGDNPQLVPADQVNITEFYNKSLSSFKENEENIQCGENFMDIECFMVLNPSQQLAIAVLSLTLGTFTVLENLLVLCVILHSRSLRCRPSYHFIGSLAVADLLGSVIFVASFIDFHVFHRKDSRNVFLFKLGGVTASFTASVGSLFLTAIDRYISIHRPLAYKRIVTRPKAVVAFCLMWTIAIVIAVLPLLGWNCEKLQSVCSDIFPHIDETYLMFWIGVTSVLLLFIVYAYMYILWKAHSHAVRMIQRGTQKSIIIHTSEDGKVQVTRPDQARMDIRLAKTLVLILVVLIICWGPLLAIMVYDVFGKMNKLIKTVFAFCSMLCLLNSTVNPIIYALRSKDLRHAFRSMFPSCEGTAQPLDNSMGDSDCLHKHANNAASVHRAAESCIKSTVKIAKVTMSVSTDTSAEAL
T2 sequence (P21554 whole entry I169A): as the sequence (P21554 whole entry Y172A) above, with I169A, A172Y counted along it
T1 sequence (P21554 whole entry L209A): as the sequence (P21554 whole entry Y172A) above, with A172Y, L209A counted along it
T3 sequence (P21554 whole entry K232A): as the sequence (P21554 whole entry Y172A) above, with A172Y, K232A counted along it
T7 sequence (P21554 whole entry H154A): as the sequence (P21554 whole entry Y172A) above, with H154A, A172Y counted along it
T8 sequence (P21554 whole entry S173A): as the sequence (P21554 whole entry Y172A) above, with A172Y, S173A counted along it
T9 sequence (P21554 whole entry I245A): as the sequence (P21554 whole entry Y172A) above, with A172Y, I245A counted along it
T4 sequence (P21554 whole entry F289A): as the sequence (P21554 whole entry Y172A) above, with A172Y, F289A counted along it
T6 sequence (P21554 whole entry L404A): as the sequence (P21554 whole entry Y172A) above, with A172Y, L404A counted along it

SMILES	G protein dissociation, AUC of 10 μM compound (maximal response) [1]	Allosteric modulation of CP55940 (PAM activity) [2]	G protein dissociation, AUC of 10 μM compound (maximal response) [2]	Allosteric agonism: G protein dissociation in the absence of an orthosteric ligand [2]	G protein dissociation, AUC of 10 μM compound (maximal response) [3]	G protein dissociation, AUC of 10 μM compound (maximal response) [4]	Increase in the potency of CP55940-induced G protein dissociation ([5]; 10 μM allosteric ligand)	G protein dissociation, AUC of 10 μM compound (maximal response) [5]	G protein dissociation, AUC of 10 μM compound (maximal response) [6]	G protein dissociation, AUC of 10 μM compound (maximal response) [7]	G protein dissociation, AUC of 10 μM compound (maximal response) [8]	G protein dissociation, AUC of 10 μM compound (maximal response) [9]
O=[N+]([O-])C[C@@H](c1ccccc1)c1c(-c2ccccc2)[nH]c2ccccc12 [GAT229]	−25.1 ± 3.5	neither allosteric ligand acted as a PAM	54.8 ± 7.5	abolished; also recorded: inhibited constitutive G protein dissociation	−134.5 ± 7.9	−123.6 ± 5.9	less than 0.5 log units	−207.0 ± 7.1	−88.9 ± 6.2	−154.6 ± 7.8	−137.3 ± 4.8	−121.6 ± 8.0
Cc1ccc2c(C(C[N+](=O)[O-])c3cccs3)c(-c3ccccc3)[nH]c2c1 (centres unmarked) [ZCZ011, 6-Methyl-3-(2-nitro-1-(thiophen-2-yl)ethyl)-2-phenyl-1 H-indole]	−34.4 ± 2.9	neither allosteric ligand acted as a PAM	−20.0 ± 9.0	abolished; also recorded: substantial reduction in G protein dissociation	−140.0 ± 7.3	−135.5 ± 6.3		−142.1 ± 14.4	−85.2 ± 7.3	−129.4 ± 5.1	−144.2 ± 6.8	−130.4 ± 12.9
